Data as given in patent publication US9040530B2, “1,2,4-triazine-6-carboxamide kinase inhibitors” (Portola Pharmaceuticals, Inc., priority 2012, dated 2015).

target: T1, full length active recombinant SYK enzyme (Homo sapiens, UniProt P43405); assay: Inhibition of Syk tyrosine phosphorylation activity (LANCE TR-FRET kinase assay); format: biochemical; details: 1 nM active SYK enzyme, 550 nM SYK-substrate, 100 μM ATP, 1 hour at room temperature
T1 construct: full length active recombinant SYK enzyme (Millipore, Calif.); purchased Millipore

SMILES | IC50 [nM]
COC[C@@H](Nc1nnc(C(N)=O)c(Nc2ccc(C)cc2)n1)C(N)=O [Example 187, (R)-3-(1-amino-3-methoxy-1-oxopropan-2-ylamino)-5-(p-tolylamino)-1,2,4-triazine-6-carboxamide] | 100 to 1000
Cc1ccc(Nc2nc(N[C@@H](C(N)=O)c3ccccc3)nnc2C(N)=O)cc1 [Example 191, (R)-3-(2-amino-2-oxo-1-phenylethylamino)-5-(p-tolylamino)-1,2,4-triazine-6-carboxamide] | 100 to 1000
CC[C@@H](Nc1nnc(C(N)=O)c(Nc2cncs2)n1)C(N)=O [Example 199, (R)-3-((1-amino-1-oxobutan-2-yl)amino)-5-(thiazol-5-ylamino)-1,2,4-triazine-6-carboxamide] | 100 to 1000
NC(=O)c1nnc(N[C@@H]2CCCC(F)(F)[C@@H]2N)nc1Nc1cccc(Cl)c1 [Example 201, 3-(((1R,2R)-2-amino-3,3-difluorocyclohexyl)amino)-5-((3-chlorophenyl)amino)-1,2,4-triazine-6-carboxamide] | 10 to 100
Cc1cc(F)cc(Nc2nc(N[C@@H]3CCCC(F)(F)[C@@H]3N)nnc2C(N)=O)c1 [Example 202, 3-(((1R,2R)-2-amino-3,3-difluorocyclohexyl)amino)-5-((3-fluoro-5-methylphenyl)amino)-1,2,4-triazine-6-carboxamide] | 10 to 100
CC[C@@H](Nc1nnc(C(N)=O)c(Nc2ccc(C)c(C)c2)n1)C(N)=O [Example 203, (R)-3-((1-amino-1-oxobutan-2-yl)amino)-5-((3,4-dimethylphenyl)amino)-1,2,4-triazine-6-carboxamide] | 10 to 100
Cc1ccc(Nc2nc(N[C@@H]3CCCC(F)(F)[C@@H]3N)nnc2C(N)=O)cc1C [Example 204, 3-(((1R,2R)-2-amino-3,3-difluorocyclohexyl)amino)-5-((3,4-dimethylphenyl)amino)-1,2,4-triazine-6-carboxamide] | 10 to 100
Cc1ccc(Nc2nc(N[C@@H]3CCCC(F)(F)[C@@H]3N)nnc2C(N)=O)cc1F [Example 205, 3-(((1R,2R)-2-amino-3,3-difluorocyclohexyl)amino)-5-((3-fluoro-4-methylphenyl)amino)-1,2,4-triazine-6-carboxamide] | 10 to 100
NC(=O)c1nnc(N[C@@H]2CCCC[C@@H]2N)nc1NC1CCc2ccccc2C1 (stereo partly drawn) [Example 206, 3-(((1R,2S)-2-aminocyclohexyl)amino)-5-((1,2,3,4-tetrahydronaphthalen-2-yl)amino)-1,2,4-triazine-6-carboxamide] | 10 to 100
Cc1ccc(Nc2nc(N[C@@H](C(N)=O)C(C)C)nnc2C(N)=O)cc1C [Example 208, (R)-3-((1-amino-3-methyl-1-oxobutan-2-yl)amino)-5-((3,4-dimethylphenyl)amino)-1,2,4-triazine-6-carboxamide] | 10 to 100

The remaining lines, values ahead:

IC50 [nM] | SMILES
< 1 | Cn1ncc2ccc(Nc3nc(N[C@@H]4CCCC[C@@H]4N)nnc3C(N)=O)cc21 [Example 182, 3-(((1R,2S)-2-aminocyclohexyl)amino)-5-((1-methyl-1H-indazol-6-yl)amino)-1,2,4-triazine-6-carboxamide]
< 1 | CC[C@@H](Nc1nnc(C(N)=O)c(Nc2ccc3c(c2)c(C#N)cn3C)n1)C(N)=O [Example 183, (R)-3-((1-amino-1-oxobutan-2-yl)amino)-5-((3-cyano-1-methyl-1H-indol-5-yl)amino)-1,2,4-triazine-6-carboxamide]
< 1 | Cn1ncc2ccc(Nc3nc(N[C@H](CC(F)F)C(N)=O)nnc3C(N)=O)cc21 [Example 184, (R)-3-((1-amino-4,4-difluoro-1-oxobutan-2-yl)amino)-5-((1-methyl-1H-indazol-6-yl)amino)-1,2,4-triazine-6-carboxamide]
1 to 10 | NC(=O)c1nnc(N[C@H](CC(F)F)C(N)=O)nc1Nc1cc(Cl)c2ncccc2c1 [Example 185, (R)-3-((1-amino-4,4-difluoro-1-oxobutan-2-yl)amino)-5-((8-chloroquinolin-6-yl)amino)-1,2,4-triazine-6-carboxamide]
10 to 100 | COc1cc(Nc2nc(N[C@H](CC(C)C)C(N)=O)nnc2C(N)=O)ccn1 [Example 186, (R)-3-(1-amino-4-methyl-1-oxopentan-2-ylamino)-5-(2-methoxypyridin-4-ylamino)-1,2,4-triazine-6-carboxamide]
10 to 100 | Cc1ccc(Nc2nc(N[C@H](Cc3cccs3)C(N)=O)nnc2C(N)=O)cc1 [Example 188, (R)-3-(1-amino-1-oxo-3-(thiophen-2-yl)propan-2-ylamino)-5-(p-tolylamino)-1,2,4-triazine-6-carboxamide]
10 to 100 | Cc1ccc(Nc2nc(N[C@H](Cc3ccc(F)cc3)C(N)=O)nnc2C(N)=O)cc1 [Example 189, (R)-3-(1-amino-3-(4-fluorophenyl)-1-oxopropan-2-ylamino)-5-(p-tolylamino)-1,2,4-triazine-6-carboxamide]
10 to 100 | Cc1ccc(Nc2nc(N[C@H](Cc3cccc(F)c3)C(N)=O)nnc2C(N)=O)cc1 [Example 190, (R)-3-(1-amino-3-(3-fluorophenyl)-1-oxopropan-2-ylamino)-5-(p-tolylamino)-1,2,4-triazine-6-carboxamide]
10 to 100 | CC[C@@H](Nc1nnc(C(N)=O)c(Nc2cccc(Cl)c2)n1)C(N)=O [Example 194, (R)-3-((1-amino-1-oxobutan-2-yl)amino)-5-((3-chlorophenyl)amino)-1,2,4-triazine-6-carboxamide]
10 to 100 | CC[C@@H](Nc1nnc(C(N)=O)c(Nc2cccc(F)c2)n1)C(N)=O [Example 195, (R)-3-((1-amino-1-oxobutan-2-yl)amino)-5-((3-fluorophenyl)amino)-1,2,4-triazine-6-carboxamide]
10 to 100 | CC[C@@H](Nc1nnc(C(N)=O)c(Nc2ccc(C)c(F)c2)n1)C(N)=O [Example 196, (R)-3-((1-amino-1-oxobutan-2-yl)amino)-5-((3-fluoro-4-methylphenyl)amino)-1,2,4-triazine-6-carboxamide]
10 to 100 | CC[C@@H](Nc1nnc(C(N)=O)c(Nc2cc(C)cc(F)c2)n1)C(N)=O [Example 197, (R)-3-((1-amino-1-oxobutan-2-yl)amino)-5-((3-fluoro-5-methylphenyl)amino)-1,2,4-triazine-6-carboxamide]
1 to 10 | NC(=O)c1nnc(N[C@@H]2CCCC[C@@H]2N)nc1Nc1ccn2ccnc2c1 [Example 198, 3-(((1R,2S)-2-aminocyclohexyl)amino)-5-(imidazo[1,2-a]pyridin-7-ylamino)-1,2,4-triazine-6-carboxamide]
10 to 100 | CC[C@@H](Nc1nnc(C(N)=O)c(Nc2ccc(Cl)cc2)n1)C(N)=O [Example 200, (R)-3-((1-amino-1-oxobutan-2-yl)amino)-5-((4-chlorophenyl)amino)-1,2,4-triazine-6-carboxamide]
1 to 10 | Cc1ccc(Nc2nc(N[C@@H]3CCCC[C@@H]3N)nnc2C(N)=O)cc1C [Example 207, 3-(((1R,2S)-2-aminocyclohexyl)amino)-5-((3,4-dimethylphenyl)amino)-1,2,4-triazine-6-carboxamide]
1 to 10 | Cc1ccc(Nc2nc(N[C@H](CC(C)C)C(N)=O)nnc2C(N)=O)cc1C [Example 209, (R)-3-((1-amino-4-methyl-1-oxopentan-2-yl)amino)-5-((3,4-dimethylphenyl)amino)-1,2,4-triazine-6-carboxamide]
